Molecular target: T1, human TLR8 (Homo sapiens, UniProt Q9NR97)
T1 construct: host or cells: HEK293 (HEK-Blue)
T1 sequence (Q9NR97 27-1041): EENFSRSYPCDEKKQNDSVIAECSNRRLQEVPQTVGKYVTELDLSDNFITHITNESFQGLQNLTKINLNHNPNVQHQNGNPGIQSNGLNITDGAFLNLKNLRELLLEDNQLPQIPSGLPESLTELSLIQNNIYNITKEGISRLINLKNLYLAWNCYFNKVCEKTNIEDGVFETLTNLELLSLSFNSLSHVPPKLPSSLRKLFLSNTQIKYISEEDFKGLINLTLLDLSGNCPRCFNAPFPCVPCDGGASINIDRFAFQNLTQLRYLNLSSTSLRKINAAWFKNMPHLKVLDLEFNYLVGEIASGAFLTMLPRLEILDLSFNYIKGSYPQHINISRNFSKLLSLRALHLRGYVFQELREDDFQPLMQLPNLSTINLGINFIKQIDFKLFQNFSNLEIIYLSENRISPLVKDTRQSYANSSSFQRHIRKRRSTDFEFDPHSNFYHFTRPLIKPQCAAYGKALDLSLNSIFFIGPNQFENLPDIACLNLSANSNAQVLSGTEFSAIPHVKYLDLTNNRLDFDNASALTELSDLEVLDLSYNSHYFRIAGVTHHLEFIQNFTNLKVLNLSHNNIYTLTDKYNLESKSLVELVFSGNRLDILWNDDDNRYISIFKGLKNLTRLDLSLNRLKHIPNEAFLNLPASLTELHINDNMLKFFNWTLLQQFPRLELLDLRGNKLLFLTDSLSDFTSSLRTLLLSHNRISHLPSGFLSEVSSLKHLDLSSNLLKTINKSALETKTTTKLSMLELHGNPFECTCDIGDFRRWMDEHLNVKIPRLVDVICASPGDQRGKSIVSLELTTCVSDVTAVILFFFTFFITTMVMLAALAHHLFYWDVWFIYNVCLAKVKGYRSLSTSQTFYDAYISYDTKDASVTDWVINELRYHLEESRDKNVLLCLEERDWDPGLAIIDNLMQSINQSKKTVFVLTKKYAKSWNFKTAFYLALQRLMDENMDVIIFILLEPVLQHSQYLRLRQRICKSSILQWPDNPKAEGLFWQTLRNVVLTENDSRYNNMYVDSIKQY
Test: HEK293-Blue-hTLR-8 cells assay (SEAP reporter, R848 stimulation)
Type: cell-based
Conditions: HEK293-Blue-hTLR8 cells, R848, 20 hrs; read-out: HEK/hTLR8 IC50
Procedure, shortened: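 HEK293-Blue-hTLR8 cells (NF-κB/AP-1-driven SEAP) in DMEM/10% FBS were treated with serially diluted compound (1% DMSO final) plus R848 for 20 hrs at 37 °C. Supernatant SEAP was measured with QUANTI-Blue after 2 hrs at 37 °C, absorbance 620-655 nm; antagonism seen as reduced reporter.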

Row | SMILES | IC50
1 | C[C@@H]1CN(c2ccc(C#N)c3nccnc23)C[C@H](CN2CCN(c3cc4c(cn3)[C@@H](C)NCC4)CC2)O1 (single isomer, unassigned) [Example 86] | 2 nM
2 | C[C@@H]1CN(c2ccc(C#N)c3nccnc23)C[C@H](CN2CCN(c3cc4c(cn3)CCN[C@@H]4C)CC2)O1 (single isomer, unassigned) [Example 87] | 2 nM
3 | C[C@@H]1CN(c2ccc(C#N)c3nccnc23)C[C@H](CN2CCN(c3cc4c(cn3)CCN[C@H]4C)CC2)O1 (single isomer, unassigned) [Example 88] | 2 nM
4 | [2H]c1nc2c(C#N)ccc(N3C[C@H](CN4CCN(c5cc6c(cn5)[C@H](C)NCC6)CC4)O[C@H](C)C3)c2nc1[2H] (single isomer, unassigned) [Example 94] | 2 nM
5 | [2H]c1nc2c(C#N)ccc(N3C[C@H](CN4CCN(c5cc6c(cn5)[C@@H](C)NCC6)CC4)O[C@H](C)C3)c2nc1[2H] (single isomer, unassigned) [Example 95] | 3 nM
6 | [2H]c1nc2c(C#N)ccc(N3C[C@H](CN4CCN(c5ccc6c(n5)CN[C@H]6C)CC4)O[C@H](C)C3)c2nc1[2H] (single isomer, unassigned) [Example 96] | 3 nM
7 | [2H]c1nc2c(C#N)ccc(N3C[C@H](CN4CCN(c5ccc6c(n5)CN[C@@H]6C)CC4)O[C@H](C)C3)c2nc1[2H] (single isomer, unassigned) [Example 97] | 4 nM
8 | [2H]c1ccc2c(N3C[C@H](CN4CCN(c5ccc6c(n5)CN[C@@H]6C)CC4)O[C@H](C)C3)ccc(C#N)c2n1 (single isomer, unassigned) [Example 98] | 5 nM
9 | [2H]c1ccc2c(N3C[C@H](CN4CCN(c5ccc6c(n5)CN[C@H]6C)CC4)O[C@H](C)C3)ccc(C#N)c2n1 (single isomer, unassigned) [Example 99] | 5 nM
10 | C[C@@H]1CN(c2ccc(C#N)c3ncccc23)C[C@H](CN2CCN(c3ccc4c(c3)CNCC4)CC2)O1 [Example 9, 5-[(2R,6S)-2-methyl-6-[[4-(1,2,3,4-tetrahydroisoquinolin-7-yl)piperazin-1-yl]methyl]morpholin-4-yl]quinoline-8-carbonitrile] | 15 nM
11 | C[C@@H]1CN(c2ccc(C#N)c3ncccc23)C[C@H](CN2CCN(c3cnc4c(c3)CNC4)CC2)O1 [Example 10, 5-[(2S,6R)-2-[[4-(6,7-dihydro-5H-pyrrolo[3,4-b]pyridin-3-yl)piperazin-1-yl]methyl]-6-methyl-morpholin-4-yl] quinoline-8-carbonitrile] | 23 nM
